The results in this text go back to a melting point compilation (Tetko et al.; mined from patent text by program, amines drawn as free bases though some values may be those of a salt).

Each structure is given as a SMILES string.

One may read the melting point as the temperature, or range, at which the solid turns liquid. Compound `Cc1cc(C)cc(C(=O)N2CCC(Nc3nc4ccccc4n3Cc3cccs3)CC2Cc2ccccc2)c1` (stereo unspecified) had a melting point of 201 °C.

For `COc1ccc(C2CCOCC2)c2sc(NC(=O)N3CCOCC3)nc12`, the melting point lay in the range of 217 to 220 °C.

The compound `CC(C)c1n[nH]c2c(NCc3ccco3)ncnc12` came in with a melting point of 179 to 182 °C.

`CCCC1=C(c2ccc(F)cc2)C(=NO)CC1` had a melting point of 165 to 166 °C.

With `CCc1nc(-c2ccc(OCCn3ccnc3)cc2)no1`, the melting point was 81 to 82 °C.

For `COC(=O)C(Oc1ccc(Cl)cc1)c1ccc(Oc2ccc(Cl)cc2)cc1` (stereo unspecified), the melting point fell in the range of 100 to 102 °C.

`Oc1ccc(-c2nc3cc(O)cc(-c4ccccc4)c3o2)cc1` yielded a melting point of 92 °C.

Consider `O=C(NCCO)c1cccc(-c2cccc3cc(Cc4cccc(F)c4)oc23)c1`, for which the melting point lay within 159 to 160 °C.

Compound `C=COC(=O)N1C[C@@H]2C(=O)CCC(c3cccc(F)c3)(c3cccc(F)c3)[C@@H]2C1` (racemic) showed a melting point of 152 °C.

The compound `O=C(O)CCNc1cc(C(c2cc(F)ccc2F)S(=O)(=O)c2ccc(Cl)cc2)c(Cl)cn1` (stereo unspecified) returned a melting point of 200 to 205 °C.

In turn, `CCOC(=O)c1cc2sc(C)c(N(C)S(=O)(=O)c3cccs3)c2[nH]1` gave a melting point of 161 °C.

`Cc1cc(-c2cccc(C3=Nc4cc(N5CCCC5)c(C#N)cc4NC(=O)C3)c2)on1`: the melting point was found to be 267 °C.

The compound `N#Cc1ccc(C(=O)NCCCCn2cnc3c(N)nc4ccccc4c32)cn1` showed a melting point of 125 to 129 °C.

For `COc1ccc2cc(CC(=O)N3CC=C(c4cccc(C(F)(F)F)c4)CC3)ccc2c1`, the melting point is 102 to 105 °C.

Regarding `CCCCCCCCCCC#CC#CCCCCCCCCC(=O)O`, the melting point is 57 to 58 °C.

`Cc1ccc(S(=O)(=O)CCCCCC(C)(C(=O)OC(C)(C)C)C(=O)OC(C)(C)C)cc1` had a melting point of 36.5 to 38.5 °C.

`O=[N+]([O-])c1cc(-c2cccnc2)ccc1O`: the melting point was above 300 °C.

For the compound `O=C1CC=C2N1CCN1C(=O)C[C@H]3CCCC[C@]231` (relative stereo), the melting point lay within 105 to 125 °C.

`N#CC(C#N)=C1N(CCCN2CCC(F)(F)C2)CCN1CCCN1CCC(F)(F)C1` registered a melting point of 122 to 124 °C.

As for `COc1ccc(C(=O)NCCOc2cccc3c2OCCO3)c(OC)c1OC`, the melting point came out at 128 °C.

`COc1ccc(C2=NN(CC3CCCCC3)C(=O)[C@H]3CCCC[C@@H]23)cc1OC` (relative stereo) returned a melting point of 137 to 139 °C.

Compound `COCn1ccnc1C(O)(c1ccc(Cl)cc1Cl)c1ccc(Cl)cc1Cl` displayed a melting point of 146 °C.

Compound `NNC(=O)c1ncn2ccccc12` showed a melting point of 189 °C.

Regarding `CN(Cc1coc(C=Cc2ccc(C(F)(F)F)cc2)n1)c1ccc(CCCCn2ccnn2)cc1`, the melting point is 112 to 114 °C.

Consider `O=[N+]([O-])c1cnc2cc(Cl)ccc2c1Cl`, for which the melting point is 165 to 167 °C.

Take `CCn1c(=N)c(F)cn(S(=O)(=O)c2ccccc2)c1=O`: the melting point was in the range of 163 to 166 °C.

In turn, `Cc1ccc(-c2c(CC(=O)O)c(C3CCCCC3)nn2-c2ccccc2)cc1` gave a melting point of 189 to 191 °C.

With `CCCC1=C(c2ccccc2)[C@@H](c2ccccc2)OC1=O`, the melting point is 104 to 105 °C.

On to `CC(C)(C)c1ccc(-c2ccc(COc3cccc4cc(NS(=O)(=O)C(F)(F)F)ccc34)c(F)c2)cc1`, for which the melting point lay within 162 to 164 °C.

Turning to `CCCc1cn(C)cc(-c2ccc(Cl)c(C(F)(F)F)c2)c1=O`, the melting point was 141 to 142 °C.

As to `CN1C(=O)C(NC(=O)Nc2cccc(Br)c2)N=C(c2ccccc2)c2ccccc21` (stereo unspecified), the melting point was in the range of 194 to 196 °C.

As to `OC(Cn1ccnc1)(c1ccc(F)cc1)c1ccc(-c2ccccc2)cc1` (stereo unspecified), the melting point came out at 220 °C.

Consider `Cc1ccc2nc(-c3ccc4nc(N)sc4c3)sc2c1`, for which the melting point fell in the range of 250 to 251 °C.

Regarding `C=CC1(C=C)OC(C(=O)O)Oc2ccc(Cl)cc21` (stereo unspecified), the melting point was 144 °C.

`Nc1nc(C(F)(F)F)cc(C(F)(F)F)n1` showed a melting point of 94.5 to 96 °C.

`CC12Cc3cnn(-c4ccc(F)cc4)c3C=C1CCC1OC3(CC=C12)C(=O)NC(=O)NC3=O` (stereo unspecified) came in with a melting point of 235 to 236 °C.

For `CC(C)n1nc(-c2c(-c3ccccc3)nn3ccc(N4CCN(c5ccccc5)CC4)cc23)ccc1=O`, the melting point was above 240 °C.

The compound `Cc1c(COc2cccc3cc(NS(=O)(=O)C(F)(F)F)ccc23)cccc1-c1ccccc1` came in with a melting point of 124 to 125 °C.

Compound `CC(C)NC(=S)NCc1c(Cl)ccc(C(=O)O)c1Cl` came in with a melting point above 220 °C.

`COc1ccc(OC[C@@H](O)CNCCc2ccc(NC3SC(=O)NC3=O)cc2)cc1` (stereo partly specified) showed a melting point of 60 °C.

`COC(=O)CCCCC(O)c1ccc2c(c1)CCCC2` (stereo unspecified): the melting point fell in the range of 107 to 108 °C.

`COc1ccc2cccc(C(C#N)O[Si](C)(C)C)c2c1` (stereo unspecified) came in with a melting point of 123 to 125 °C.

For `CCCCc1nc(C)c(CC(=S)N2CCC2)c(=O)n1Cc1ccc(-c2ccccc2-c2nnn[nH]2)cc1`, the melting point was 92.4 to 93.8 °C.

`O=[N+]([O-])c1cccc(OCc2ccccc2)c1Cl` showed a melting point of 94 °C.

`COc1cc2c(cc1OC)C(Cc1cc(I)c(I)c(I)c1)N(C(=O)C(F)(F)F)CC2` (stereo unspecified) registered a melting point of 215 to 216 °C.

Turning to `CCOC1COCC1Oc1cc(C(=O)Nc2c(Cl)cncc2Cl)ccc1OC` (stereo unspecified), the melting point was in the range of 171 to 173 °C.

`O=C(O)c1cn(CCO)nc1[N+](=O)[O-]` displayed a melting point of 147 to 149 °C.

As for `CN1C(=O)C(Cc2ccccc2)Oc2ccc([N+](=O)[O-])cc21` (stereo unspecified), the melting point lay in the range of 166 to 169 °C.

As for `CN(C)c1cccc([N+](=O)[O-])c1C(=O)NC1CCN(C(c2ccccc2)c2ccccc2)CC1`, the melting point is 122 °C.

In turn, `CCC1CC(=O)N(Cc2cccc(C(=O)NC3CCCC3)c2)N=C1c1ccc(OC)c(OC2CCCC2)c1` (stereo unspecified) registered a melting point of 153 °C.

`Cn1c(=O)c(-c2ccc(Cl)cc2Cl)cc2c3cc(-c4ccn[nH]4)ccc3[nH]c21` registered a melting point of 246 to 250 °C.

With `Cn1cc(Cl)c2cc(C=O)ccc21`, the melting point came out at 109 °C.

Compound `Oc1cc(Br)ccc1C12CC3CC(CC(C3)C1)C2` showed a melting point of 112 to 114 °C.

The compound `COc1ccc(C(=O)Nc2c(Cl)cncc2Cl)cc1O` had a melting point of 227 to 228 °C.

`NC(=O)CN1C(=O)[C@H](NC(=O)c2cc3ccccc3[nH]2)[C@H](c2ccccc2)Sc2cc(Cl)ccc21` (relative stereo) had a melting point of 174 to 178 °C.

In the case of `COc1nc(N)nc2c1ncn2COC(CO)CO`, the melting point lay in the range of 162 to 163 °C.

In turn, `O=C(O)C1=C(c2ccccc2)c2ccccc2CS1` yielded a melting point of 155 to 156 °C.

In the case of `COc1nc(C)nc(NC(=N)SC)n1`, the melting point worked out at 112 °C.

For the compound `Cc1oc(-c2ccccc2)nc1COc1ccc(COc2ccc(CCC(=O)O)cc2)cc1`, the melting point is 177 to 178 °C.

Take `COC1CCc2c(c(C)[nH]c(=O)c2C#N)C1` (stereo unspecified): the melting point fell in the range of 257 to 259 °C.

Compound `O=C(O)C(Nc1ccc2ccccc2c1)c1c(Cl)cccc1Cl` (stereo unspecified) registered a melting point of 94.5 °C.

As for `O=c1[nH]c2cc(C(F)(F)F)cc3c2n(c1=O)C(P(=O)(O)O)CC3` (stereo unspecified), the melting point came out at 262 °C.

`COc1ccccc1C1(Cc2ccccc2)C(=O)N(C)c2ccccc21` (stereo unspecified) came in with a melting point of 174 to 176 °C.

In the case of `O=[N+]([O-])C=C1CN=C(c2ccccc2F)c2cc(Cl)ccc2N1`, the melting point fell in the range of 170 to 172 °C.

The compound `COc1cccc2c(=O)c3c(OCC4CS4)cc(OCC4CS4)cc3oc12` (stereo unspecified) came in with a melting point of 240 °C.

As for `Cc1nc(NC(=O)c2ccccc2)sc1C(=O)NCc1ccccc1Cl`, the melting point lay within 191 to 193 °C.

Compound `CC(N=C(O)C(Cl)=C(Cl)C(=O)O)c1ccccc1` (stereo unspecified) gave a melting point of 62 to 65 °C.

Consider `Cc1oc(-c2ccco2)nc1COc1ccc(COc2nn(Cc3ccccc3)cc2CO)cn1`, for which the melting point was 94 to 95 °C.

Regarding `COc1ccc(Cc2nc(N(C)CCO)c3c(C)c(C#N)sc3n2)cc1OC`, the melting point fell in the range of 62 to 63 °C.

Compound `O=C(CCN1CCN(c2ccccc2)CC1)c1ccc2c(c1)Cc1cc(C(=O)CCN3CCN(c4ccccc4)CC3)ccc1O2` registered a melting point of 206 to 208 °C.

The compound `CCCCNS(=O)(=O)CC(O)(CCCC)C(N)C(O)CC1CCCCC1` (stereo unspecified) came in with a melting point of 164 to 165 °C.

In turn, `CC(C)c1cc(NC(=O)C(CS)Cc2ccccc2)cc(C(=O)O)c1` (stereo unspecified) gave a melting point of 205 to 209 °C.

In the case of `Cc1ccccc1C(CCC(=O)O)Oc1cc(OCc2ccsc2)ccc1-c1nc(C(=O)O)co1` (racemic), the melting point lay in the range of 178 to 179 °C.

Consider `CC(=O)c1c(C)oc2c(-n3c(=O)cc(C(F)(F)F)n(C)c3=O)c(F)cc(Cl)c12`, for which the melting point was 138 to 140 °C.

`CCOc1ccc([C@H]2O[C@H](CC(=O)O)C(=O)N(CC(C)(C)C)c3ccc(Cl)cc32)c(OC)c1` (relative stereo): the melting point lay within 230 to 232 °C.

As for `COc1ccccc1C1CC(=O)C(C(C)=O)C(=O)C1` (stereo unspecified), the melting point was in the range of 65 to 66 °C.

Compound `CC(C)CCc1c(-c2ccc(S(C)(=O)=O)cc2)cnn(-c2ccc(F)cc2)c1=O` displayed a melting point of 151 to 154 °C.

In turn, `O=c1[nH][nH]c(C(F)(F)F)c1Cc1ccc(Cl)cc1` yielded a melting point of 151 to 152 °C.

In turn, `CCOC(=O)c1cc2c(nc(C)n2C)c(O)c1CCC(=O)c1ccccc1` came in with a melting point of 205 to 206 °C.

As to `CCCCc1nc2c(N)nc3cccnc3c2n1CCN`, the melting point fell in the range of 175 to 176 °C.

The compound `O=[N+]([O-])c1cc(Cl)c(C=CN2CCN(c3nsc4ccccc34)CC2)cc1Cl` had a melting point of 194 to 195 °C.

With `COC(=O)c1c(S(C)(=O)=O)ccc(C(=O)O)c1C`, the melting point was in the range of 113 to 118 °C.

The compound `CN1CCN(CCc2ccc(Nc3ncc4c(n3)-c3ccccc3C(c3ccc(Cl)c(Cl)c3)C4)cc2)CC1` (stereo unspecified) registered a melting point of 119 to 121 °C.

For `CC(=O)Oc1ccc2c(c1)CCC1C3CCC(=O)C3(C)CC(=O)C21O` (stereo unspecified), the melting point was in the range of 247 to 248 °C.

As for `CC(C)(C)OC(=O)N1CC[C@@H]2Nc3cccc(Br)c3[C@@H]2CC1` (relative stereo), the melting point was found to be 124 °C.

`CC(C)(C)OC(=O)CN1CCN(c2ccncc2)C1=O`: the melting point was 147 to 148 °C.
